{"source": "paper PMC5495782", "about": "“Designed α-sheet peptides suppress amyloid formation in Staphylococcus aureus biofilms” (NPJ Biofilms and Microbiomes, 2017)", "key": {"[1]": {"conditions": "ref [25]; cited from earlier work", "excerpt": "In addition, the structural properties of the peptide provide a benchmark, or spectroscopic signature, for α-sheet structure, which can be used to interpret spectra of amyloid species. The main α-sheet design used here is AP90 (Alternating Peptide #90, referred to as α1 previously, [26]), but we also tested several other designs (Supp ..."}, "synthetic PSMα1 [2]": {"system": "synthetic PSMα1", "assay": "PSMα1 fibrillization assay with added inhibitors (ThT), LB medium", "assay_type": "biochemical, Staphylococcus aureus", "conditions": "LB medium + 0.34% DMSO, 37 °C", "excerpt": "(§1) Two different solvent conditions were used (0.34% DMSO in water, blue bars; LB medium + 0.34% DMSO, red bars) and aggregation was monitored by ThT fluorescence. Inhibition values for each peptide are reported as a percentage of the peptide-free control samples (0% inhibition). […] Fluorescence values in NaCl solution were quite high, so its curve is shown as an inset."}, "synthetic PSMα1 [3]": {"system": "synthetic PSMα1", "assay": "PSMα1 fibrillization assay with added inhibitors (ThT), water", "assay_type": "biochemical, Staphylococcus aureus", "conditions": "30 μM PSMα1, inhibitor at 4:1 molar ratio, 0.34% v/v DMSO in ddH2O, pH 5, 37 °C, ThT 22 μM; SEM of 3–6 replicates; vs peptide-free control", "excerpt": "as §1"}, "[4]": {"system": "S. aureus SH1000 WT biofilm amyloid", "assay": "ThT fluorescence assay of amyloid in SH1000 WT biofilms", "assay_type": "cell-based, Staphylococcus aureus SH1000 WT", "conditions": "80 μM peptide, 24 h, 37 °C", "experimental": "(§2) Fig. 1 Screening of designed peptides for inhibition of amyloid formation in S. aureus biofilms. a Schematic of protocol for testing designed α-sheet peptides in S. aureus biofilm cultures with an illustration of the main-chain structure of the AP90 α-sheet design. b A panel of designed α-sheet peptides (AP90, AP401, and AP407), as well as random coil (RC) and β-hairpin controls (β), was tested against two S. aureus strains, MN8 (hashed bars) and SH1000 WT (white bars). […] Error bars in b and c represent the standard error of the mean for experiments performed in triplicate […]\n(§3) ThT, an established fluorescent label for amyloid fibrils,[43] was then added to each well at a concentration of 22 μM and biofilms were incubated statically for 4 h at room temperature. […] Plates were shaken at high speed for 1 min on a plate shaker to detach any remaining biofilm material and homogenize the samples, which were then transferred to a 96-well black-walled plate (Corning, TC-treated polystyrene) and ThT fluorescence was measured using an excitation wavelength of 438 nm and emission at 495 nm on a Perkin–Elmer Enspire plate reader (hereafter referred to as the plate reader). Fluorescence measurements were corrected by subtracting the background intensity of identical samples without ThT (in the case of the biofilms) or PSMα1 (for the in vitro measurements). […]"}, "[5]": {"system": "S. aureus MN8 biofilm amyloid", "assay": "ThT fluorescence assay of amyloid in MN8 biofilms", "assay_type": "cell-based, Staphylococcus aureus MN8", "conditions": "24 h", "experimental": "as §2, §3"}, "[6]": {"system": "S. aureus SH1000 WT biofilm PSM amyloid fibrils", "assay": "TEM of biofilms for extracellular fibril deposits", "assay_type": "cell-based, Staphylococcus aureus SH1000 WT", "conditions": "80 μM AP90, biofilms grown 24 h", "experimental": "To further investigate the ability of designed peptides to inhibit PSM amyloid formation, fluorescent (mCherry) S. aureus MN8 biofilms were grown in culture plates with glass bottom wells with or without α-sheet inhibitors. After 24 h at 37 °C the biofilms were gently rinsed with pipetted saline to remove unattached biomass and the remaining attached cells were fixed and imaged. A robust biofilm formed on the glass at the bottom of each well in LB medium alone (Fig. 2a); in contrast, there was significant disruption of the biofilm in the presence of the α-sheet compounds. […] Quantification of the images is presented in Supplementary Fig. S2. […] Addition of anti-α-sheet peptides triggered a significant reduction in PSM amyloid formation as measured by ThT fluorescence, which presumably weakened the S. aureus biofilms and their attachments by reducing the PSM amyloid fibril content of the EM. […]\nFig. 2 S. aureus biofilm structures become less robust when grown in the presence of designed peptide inhibitors. a S. aureus MN8 + mCherry biofilms were grown on glass substrates for 24 h and then cells were washed and fixed. […] For quantification of the images see Supplementary Fig. S2. b In S. aureus SH1000 WT biofilms grown in regular LB medium, PSM amyloid fibrils were visible as deposits in spaces between cells (left).\nImages were analyzed using Gwyddion software (Czech Metrology Institute)."}, "[7]": {"assay": "CD spectroscopy of designed and control peptides", "assay_type": "physicochemical", "conditions": "100 µM (RC 30 µM), phosphate buffer (β and AP193: acetate buffer), room temperature", "protocol": "AP407 is a variant of AP90 with a disulfide bond. […] An unstructured random coil peptide (RC) and a β-sheet hairpin (β) are used as structural controls.[25], [26]\nCD spectra of RC, β, AP90, AP401, AP407, and AP193. Peptides were\ndissolved to a concentration of 100 µM (except for RC, which was 30 µM) in phosphate\nbuffer (except for β and AP193, which were in acetate buffer) and spectra were\nacquired at room temperature. […] MRE = mean residue ellipticity."}, "S. aureus biofilm": {"system": "S. aureus biofilm", "assay": "Crystal Violet staining of S. aureus biofilm (24 h batch growth)", "assay_type": "cell-based, Staphylococcus aureus", "conditions": "24 h batch growth in microtiter plates; 0.5% w/v Crystal Violet, absorbance at 550 nm; strain not stated; peptide 80 μM unless otherwise noted", "experimental": "We employed two S. aureus strains—SH1000 WT, a rsbU ^+ laboratory strain,[27] and MN8, a clinical strain isolated from the human urogenital tract[28] (Supplementary Table S2). First we confirmed that the cells formed biofilms by batch growth of the bacteria in microtiter plates through staining with Crystal Violet dye after 24 h. Application of our AP90 α-sheet design led to a 54% reduction in biofilm. As crystal violet is a crude measure of the extent of biofilm formation, we assessed amyloid fibril formation in the biofilms by adapting the conventional Thioflavin T (ThT) amyloid fibril assay for use in live cells. After 24 h of batch growth in microtiter plates, the biofilms were washed and incubated with ThT, and the resulting fluorescence signals served as a proxy for the extent of fibril formation in the EM (Fig. 1a). Next, we utilized this assay to test the α-sheet inhibitor designs and control peptides described above (sequences provided in Supplementary Table S1). […]\nThT, an established fluorescent label for amyloid fibrils,[43] was then added to each well at a concentration of 22 μM and biofilms were incubated statically for 4 h at room temperature. […] Fluorescence measurements were corrected by subtracting the background intensity of identical samples without ThT (in the case of the biofilms) or PSMα1 (for the in vitro measurements). […]"}, "PSMα1 [8]": {"target": "T1, PSMα1 (Staphylococcus aureus, UniProt A9JX05)", "T1 construct": "synthetic PSMα1 (f[…], where f denotes formylation, Ontores Biotechnologies); purchased Ontores Biotechnologies; host or cells: chemical synthesis", "T1 sequence (A9JX05 whole entry, looked up)": "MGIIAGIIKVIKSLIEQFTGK", "assay": "Biolayer interferometry, AP90 on sensor tip, PSMα1 in solution", "assay_type": "binding", "conditions": "PSMα1 α-sheet-rich (~48 h) vs α-helix-rich (~0 h) or β-sheet-rich (~150 h)", "experimental": "The binding was explored further using biolayer interferometry, which analyzes interference patterns based on adsorption of samples to a biosensor tip.\nAll biolayer interferometry experiments were performed on a BLItz biosensor system (ForteBio, Pall) using aminopropylsilane (APS) sensors. Sensors were hydrated in ddH2O + 22 μM ThT for 10 min prior to use; ThT was included to mirror the conditions of the corresponding aggregation curves."}, "PSMα1 [9]": {"target": "T1, PSMα1", "assay_type": "binding", "conditions": "fresh (0 h), pre-incubated (48 h) and fibrillar (165 h) PSMα1; 2 h, 25 °C; GndHCl elution; NanoOrange fluorescence; six samples", "protocol": "To further probe the interactions between PSMα1 and the designed α-sheet peptides, we immobilized AP90 on agarose beads and applied solutions of either (a) fresh (completely solubilized), (b) pre-incubated, (allowed to aggregate as in Fig. 6a for 48 h corresponding to α-sheet oligomer species) or (c) fibrillar PSMα1. The bead mixtures were contained within a micro-spin column, so the system was treated as a packed bed reactor and a series of phosphate buffered saline (PBS) washes was used to remove unbound material. The PSMα1 content of each wash was measured with a fluorescence-based assay. PSMα1 bound to immobilized AP90 was eluted with high guanidinium hydrochloride (GndHCl).\nMeanwhile, PSMα1 samples were prepared as above (see “PSM fibrillization assay”) and incubated at 37 °C. […] FT and the washes (W1-W7) were analyzed with the NanoOrange® Protein Quantitation Kit (Thermo Fisher Scientific). […] This approach was necessary because elution of bound PSMα1 with GndHCl obscures protein quantification, and unfortunately, the inability to quantify the GndHCl bound fractions prevents confirmation of the mass balance. […]\nwere alternated with PBS washes (W8-W13). All eluents were then analyzed with the\nNanoOrange® Protein Quantitation Kit and fluorescence was used as an indicator of\nPSMα1 content in each eluent. Fluorescence measurements were normalized by the […]"}}, "note": "Entries after “also recorded” stand apart in the source; their conditions may differ. Where a SMILES comes first, the peptide text is derived from it. [ ]: non-standard residue; d: D form.", "data": [{"smiles": "CSCC[C@H](NC(=O)[C@@H](CCCCN)NC(=O)[C@H](CC(C)C)NC(=O)[C@@H](CC(N)=O)NC(=O)[C@H](CCSC)NC(=O)[C@H](NC(=O)[C@H](Cc1c[nH]c2ccccc12)NC(=O)CNC(=O)[C@H](CO)NC(=O)[C@H](Cc1ccc(O)cc1)NC(=O)[C@H](CCC(=O)O)NC(=O)[C@H](CC(N)=O)NC(=O)[C@H](CCSC)NC(=O)[C@@H](Cc1c[nH]c2ccccc12)NC(=O)[C@H](CO)NC(=O)[C@@H](CC(C)C)NC(=O)[C@H](CC(N)=O)NC(=O)[C@@H](CCSC)NC(=O)[C@H](CCC(=O)O)NC(=O)CNC(=O)[C@H](CCCNC(=N)N)NC(C)=O)[C@H](C)O)C(=O)NCC(=O)N[C@@H](CCCNC(=N)N)C(N)=O", "note": "[AP90] (Ac-RGE[dM]N[dL]S[dW]MNEYSGW[dT]M[dN]L[dK]MGR-NH2)", "values": [{"measurement": "secondary structure by CD, FTIR and 2D NMR", "setting": "[1]", "value": "does not adopt conventional secondary structure"}, {"measurement": "inhibition of PSMα1 fibril formation", "setting": "synthetic PSMα1 [2]; 30 μM PSMα1, 1:4 PSMα1:inhibitor, ThT 22 μM, SEM of 3–6 replicates, vs peptide-free control", "value": "73 ± 11", "unit": "%"}, {"measurement": "effect on PSMα1 fibril formation, in words", "setting": "synthetic PSMα1 [2]; 30 μM PSMα1, 1:4 PSMα1:peptide", "value": "inhibited fibril formation to nearly the same extent as in water; also recorded: inhibition by AP90 persisted"}, {"measurement": "inhibition of PSMα1 amyloid formation", "setting": "synthetic PSMα1 [3]", "value": "81 ± 5", "unit": "%"}, {"measurement": "effect on amyloid fibril formation (ThT), in words", "setting": "[4]", "value": "significant reduction in amyloid fibril formation"}, {"measurement": "reduction of amyloid fibril formation (ThT)", "setting": "[4]; LB Lennox, ThT 22 μM, ex 438 / em 495 nm, vs peptide-free control, experiments in triplicate", "value": "~ 30%"}, {"measurement": "effect on amyloid fibril formation (ThT), in words", "setting": "[5]; 80 μM peptide, 37 °C, effect particularly for the MN8 clinical isolate", "value": "significant reduction in amyloid fibril formation"}, {"measurement": "dose-response of biofilm amyloid content (ThT), in words", "setting": "[5]; increasing concentrations of AP90 in culture medium", "value": "fibril formation decreased in a dose-dependent manner; also recorded: significant decrease in EM amyloid content as the concentration of AP90 is increased"}, {"measurement": "extracellular PSM fibril deposits by TEM", "setting": "[6]", "value": "amyloid fibrils could not be found; also recorded: no extracellular fibril deposits were observed; also recorded: no amyloid fibrils were visible"}, {"measurement": "CD spectrum (secondary structure)", "setting": "[7]", "value": "featureless spectrum, except for negative ellipticity in the so-called random coil region around 195–200 nm"}, {"measurement": "reduction in biofilm (Crystal Violet)", "setting": "S. aureus biofilm", "value": 54, "unit": "%"}, {"measurement": "binding preference by KD, in words", "setting": "PSMα1 [8]", "value": "preferential binding between AP90 and α-sheet-rich PSMα1 (~48 h)"}, {"measurement": "binding of PSMα1 samples to immobilized AP90", "setting": "PSMα1 [9]", "value": "more of the oligomer sample bound to the column than fresh or fibrillar material"}]}]}
